Experimental data reported in patent US20070093520A1, “Method of treatment of diarrhea-predominant irritable bowel syndrome in a subject” (priority 2005, published 2007).

Tested on: diarrhea-predominant IBS subjects
Assay type: in vivo, human
Conditions: TEAE incidence, 2 mg, Safety Population; PT
Protocol: The study was performed in approximately 150 study centers. Approximately 1600 eligible subjects were to be given cilansetron 2 mg TID. At Visit 1, pre-treatment assessments were conducted. […] Subjects were to return to the study site one month later for Visit 3 (Day 31) for their first interim assessment. […] All subjects who discontinued from the study were to have the same post-study assessments required at Visit 7 performed at their early termination visit. […]
Stool specimens were analyzed at every visit for occult blood. An independent GERB had been established to provide advice on GI AEs during the course of the study.
Adverse events were assessed at Baseline, at each clinic visit, and at the end of the study (Month 12 or the early termination visit). All AEs, which occurred during the study were followed up in accordance with good medical practice until resolved or judged no longer clinically significant, or if a condition was chronic, until fully characterized. Adverse events could occur in the specified follow-up period and, regardless of the interval since the last administration of the study medication, were treated in the same manner as an AE which occurred during the treatment with study medication. Each AE was evaluated for duration, severity, seriousness, and causal relationship to the investigational drug. The action taken and the outcome were also recorded.
Specifically, subjects who were lost to follow-up and had no post-Baseline contact with the site were excluded from the Safety population. The subjects who discontinued from the study due to lost to follow-up were identified based on the information collected on the study termination CRF page.
After the pretreatment assessment at Visit 1 (Days […] to −3), subjects were to return to the study site for a Baseline assessment and start the treatment at Visit 2 (Day 1).
For the by time-interval analyses of disposition, prevalence of AEs, and of markedly abnormal and predefined changes in laboratory values, vital signs, and ECGs, the following interval windows were used:
Adverse events that were already present prior to the first dose of cilansetron study medication but increased in severity afterwards were considered as treatment-emergent.
The 5% cutoff point was based on the incidence within higher level terms.
Subjects were counted at most once for each primary system organ class and preferred term. Serious AEs that resolved prior to receiving study medication or occurred more than 30 days after the last dose of study medication were not included in the incidence tables. A listing of all SAEs is presented; SAEs with onset prior to receiving study medication or more than 30 days after discontinuation of study medication were flagged. The listing presents lower level term and preferred term of the SAE, severity, action taken, outcome, and relationship of the SAE, start and stop date of the SAE, study day of onset of the SAE, age, race, and sex.

`Cc1nccn1C[C@H]1CCc2c(c3cccc4c3n2CCC4)C1=O` [cilansetron, (R)-(−)-4,5,6,8,9,10-hexahydro-10-[(2-methyl-1H-imidazol-1-yl)methyl]-11H-pyrido-[3,2,1-jk]-carbazol-11-one] was tested, and the “Cervical Disc Lesion” value was 1 (<1%) n (%), the “Chest Discomfort” value was 1 (<1%) n (%) and the “Chest Pain” value was 12 (<1%) n (%). The Chromaturia was 1 (<1%) n (%), the “Chronic Obstructive Airways Disease Exacerbated” value was 1 (<1%) n (%) and the “Clavicle Fracture” value was 1 (<1%) n (%). For the same compound, the Contusion was 2 (<1%) n (%), the “Coronary Artery Disease NOS” value was 2 (<1%) n (%) and the Cough was 26 (2%) n (%). The “Cystocele*” value was 1 (<1%) n (%), the Dandruff was 1 (<1%) n (%) and the “Depressed Mood” value was 1 (<1%) n (%). For the same compound, the Depression was 21 (1%) n (%), the “Depression Aggravated” value was 6 (<1%) n (%) and the “Dermatitis Allergic” value was 11 (<1%) n (%). For the same compound, the “Dermatitis Contact” value was 1 (<1%) n (%), the “Dermatitis NOS” value was 2 (<1%) n (%) and the “Diabetes Mellitus NOS” value was 3 (<1%) n (%). For the same compound, the “Diabetes Mellitus Non-Insulin-Dependent” value was 1 (<1%) n (%), the “Difficulty in Micturition” value was 2 (<1%) n (%) and the “Discoid Lupus Erythematosus” value was 1 (<1%) n (%). The Dissociation was 1 (<1%) n (%), the “Distension NOS” value was 3 (<1%) n (%) and the “Dry Skin” value was 1 (<1%) n (%). The “Dysmenorrhoea*” value was 2 (<1%) n (%), the “Dyspnoea Exacerbated” value was 2 (<1%) n (%) and the “Dyspnoea NOS” value was 5 (<1%) n (%). For the same compound, the Dysuria was 5 (<1%) n (%), the Eczema was 3 (<1%) n (%) and the “Epidermal Cyst” value was 1 (<1%) n (%). The Epistaxis was 2 (<1%) n (%), the “Erectile Dysfunction NOS*” value was 2 (<1%) n (%) and the Erythema was 1 (<1%) n (%). For the same compound, the “Extrasystoles NOS” value was 2 (<1%) n (%), the “Face Injury” value was 2 (<1%) n (%) and the Fall was 2 (<1%) n (%). The Fatigue was 20 (1%) n (%), the “Fear of Falling” value was 1 (<1%) n (%) and the “Fibula Fracture” value was 1 (<1%) n (%). The “Fluid Retention” value was 1 (<1%) n (%), the “Food Intolerance NOS” value was 1 (<1%) n (%) and the “Foot Fracture” value was 2 (<1%) n (%). For the same compound, the “Forearm Fracture” value was 1 (<1%) n (%), the “Foreign Body in Eye” value was 1 (<1%) n (%) and the “Genital Discharge” value was 1 (<1%) n (%). For the same compound, the “Genital Pain NOS” value was 1 (<1%) n (%), the Glycosuria was 1 (<1%) n (%) and the Gout was 1 (<1%) n (%). For the same compound, the “Groin Pain” value was 2 (<1%) n (%), the “Gynaecomastia*” value was 1 (<1%) n (%) and the Haematuria was 2 (<1%) n (%). The “Hand Fracture” value was 1 (<1%) n (%), the Hangover was 1 (<1%) n (%) and the “Head Injury” value was 3 (<1%) n (%). For the same compound, the “Heat Rash” value was 1 (<1%) n (%), the Hoarseness was 1 (<1%) n (%) and the Hunger was 1 (<1%) n (%). For the same compound, the Hypercholesterolaemia was 8 (<1%) n (%), the “Hypercholesterolaemia Aggravated” value was 1 (<1%) n (%) and the “Hyperglycaemia NOS” value was 4 (<1%) n (%). For the same compound, the Hyperkalaemia was 1 (<1%) n (%), the “Hyperlipidaemia NOS” value was 3 (<1%) n (%) and the Hypertriglyceridaemia was 8 (<1%) n (%). The Hypokalaemia was 3 (<1%) n (%), the “Hyponatraemia Aggravated” value was 1 (<1%) n (%) and the Hypotrichosis was 4 (<1%) n (%). For the same compound, the “Influenza Like Illness” value was 8 (<1%) n (%), the “Inguinal Mass” value was 1 (<1%) n (%) and the “Injury NOS” value was 1 (<1%) n (%). The Insomnia was 20 (1%) n (%), the “Intervertebral Disc Herniation” value was 2 (<1%) n (%) and the “Joint Dislocation” value was 1 (<1%) n (%). For the same compound, the “Joint Sprain” value was 3 (<1%) n (%), the “Joint Stiffness” value was 2 (<1%) n (%) and the “Joint Swelling” value was 2 (<1%) n (%). The Laceration was 2 (<1%) n (%), the “Laryngitis NOS” value was 3 (<1%) n (%) and the Lethargy was 1 (<1%) n (%). The Leukocyturia was 2 (<1%) n (%), the “Libido Decreased” value was 1 (<1%) n (%) and the “Ligament Injury NOS” value was 4 (<1%) n (%). The “Limb Injury NOS” value was 8 (<1%) n (%), the “Localised Osteoarthritis” value was 2 (<1%) n (%) and the “Loin Pain” value was 1 (<1%) n (%). The “Loss of Libido” value was 1 (<1%) n (%), the “Major Depressive Disorder NOS” value was 1 (<1%) n (%) and the Malaise was 2 (<1%) n (%). The “Maxillary Sinusitis” value was 5 (<1%) n (%), the “Menopausal Symptoms*” value was 1 (<1%) n (%) and the “Menorrhagia*” value was 1 (<1%) n (%). For the same compound, the “Menses Delayed*” value was 1 (<1%) n (%), the “Mental Disorder NOS” value was 1 (<1%) n (%) and the Monoarthritis was 2 (<1%) n (%). The “Mood Alteration NOS” value was 1 (<1%) n (%), the “Mood Swings” value was 2 (<1%) n (%) and the “Muscle Cramps” value was 6 (<1%) n (%). The “Muscle Injury NOS” value was 2 (<1%) n (%), the “Muscle Spasms” value was 2 (<1%) n (%) and the “Muscle Strain” value was 7 (<1%) n (%). The “Muscle Tightness” value was 1 (<1%) n (%), the “Muscle Twitching” value was 1 (<1%) n (%) and the “Musculoskeletal Chest Pain” value was 2 (<1%) n (%). The “Musculoskeletal Discomfort” value was 1 (<1%) n (%), the “Musculoskeletal Pain” value was 1 (<1%) n (%) and the Myalgia was 11 (<1%) n (%). The “Myocardial Ischaemia” value was 4 (<1%) n (%), the “Nail Discolouration” value was 1 (<1%) n (%) and the “Nail Disorder NOS” value was 1 (<1%) n (%). The “Nasal Congestion” value was 2 (<1%) n (%), the “Nasal Ulcer” value was 1 (<1%) n (%) and the “Neck Injury NOS” value was 1 (<1%) n (%). For the same compound, the “Neck Pain” value was 8 (<1%) n (%) and the “Neck Stiffness” value was 1 (<1%) n (%).
